Reference: PubChem BioAssay (NCI)
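Five concentrations, 48 hours, 96-well plates. GI50 marks 50% less growth. TGI: concentration producing complete growth inhibition.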

Experiments:
Assay in all cases: NCI tumour cell line growth inhibition, 48 h
[1] = test system: SF-539 CNS
[2] = test system: IGROV1 ovarian
[3] = test system: 786-0 renal
[4] = test system: NCI-H226 lung
[5] = test system: CAKI-1 renal
[6] = test system: OVCAR-4 ovarian
[7] = test system: RXF 393 renal
[8] = test system: HOP-62 NSCLC
[9] = test system: MALME-3M melanoma
[10] = test system: UO-31 renal
[11] = test system: KM12 colon
[12] = test system: HOP-92 NSCLC
[13] = test system: HCC-2998 colon
[14] = test system: MCF7 breast
[15] = test system: BT-549 breast
[16] = test system: A498 renal
[17] = test system: NCI-H522 lung
[18] = test system: COLO 205 colon
[19] = test system: TK-10 renal
[20] = test system: U251 CNS
[21] = test system: MDA-MB-231 breast
[22] = test system: OVCAR-8 ovarian
[23] = test system: PC-3 prostate
[24] = test system: SN12C renal
[25] = test system: HS 578T breast
[26] = test system: SF-268 CNS
[27] = test system: OVCAR-5 ovarian
[28] = test system: SNB-19 CNS
[29] = test system: NCI/ADR-RES ovarian
[30] = test system: UACC-257 melanoma
[31] = test system: SNB-75 CNS
[32] = test system: NCI-H460 lung
[33] = test system: CCRF-CEM leukemia
[34] = test system: SK-MEL-5 melanoma
[35] = test system: LOX IMVI melanoma
[36] = test system: RPMI-8226 leukemia
[37] = test system: MDA-MB-435
[38] = test system: SK-MEL-28 melanoma
[39] = test system: SR leukemia
[40] = test system: T-47D breast
[41] = test system: EKVX NSCLC
[42] = test system: M14 melanoma
[43] = test system: DU-145 prostate
[44] = test system: ACHN renal
[45] = test system: HT29 colon
[46] = test system: UACC-62 melanoma
[47] = test system: SK-OV-3 ovarian
[48] = test system: HCT-116 colon
[49] = test system: NCI-H23 lung
[50] = test system: HL-60(TB) leukemia
[51] = test system: OVCAR-3 ovarian
[52] = test system: A549 NSCLC
[53] = test system: SW-620 colon
[54] = test system: MOLT-4 leukemia
[55] = test system: HCT-15 colon
[56] = test system: SK-MEL-2 melanoma

COc1ccc2cc1Oc1ccc(cc1)C[C@H]1c3c(cc4c(c3Oc3cc5c(cc3OC)CCN(C)[C@@H]5C2)OCO4)CCN1C
GI50 [1]: 0.826 µM
TGI [1]: 1.63 µM
GI50 [2]: 5.42 µM
TGI [2]: 12.9 µM
GI50 [3]: 5.57 µM
TGI [3]: 12 µM
GI50 [4]: 4.1 µM
TGI [4]: 11.5 µM
GI50 [5]: 5.13 µM
TGI [5]: 11.9 µM
GI50 [6]: 2.52 µM
TGI [6]: 12.3 µM
GI50 [7]: 0.628 µM
TGI [7]: 1.69 µM
GI50 [8]: 2.98 µM
TGI [8]: 9.6 µM
GI50 [9]: 1.18 µM
TGI [9]: 3.01 µM
GI50 [10]: 5.41 µM
TGI [10]: 11.7 µM
GI50 [11]: 4.83 µM
TGI [11]: 13.2 µM
GI50 [12]: 1.3 µM
TGI [12]: 11.8 µM
GI50 [13]: 1.65 µM
TGI [13]: 8.26 µM
GI50 [14]: 1.85 µM
TGI [14]: 7.4 µM
GI50 [15]: 5.12 µM
TGI [15]: 11.8 µM
GI50 [16]: 5.93 µM
TGI [16]: 12.1 µM
GI50 [17]: 1.43 µM
TGI [17]: 6.77 µM
GI50 [18]: 0.356 µM
TGI [18]: 1.36 µM
GI50 [19]: 5.87 µM
TGI [19]: 12.2 µM
GI50 [20]: 0.832 µM
TGI [20]: 5.52 µM
GI50 [21]: 1.1 µM
TGI [21]: 2.87 µM
GI50 [22]: 2.36 µM
TGI [22]: 9.9 µM
GI50 [23]: 2.08 µM
TGI [23]: 11.4 µM
GI50 [24]: 3.55 µM
TGI [24]: 10.6 µM
GI50 [25]: 7.76 µM
TGI [25]: 46.2 µM
GI50 [26]: 5.09 µM
TGI [26]: 11.5 µM
GI50 [27]: 6.65 µM
TGI [27]: 13.5 µM
GI50 [28]: 3.53 µM
TGI [28]: 14.6 µM
GI50 [29]: 6.02 µM
TGI [29]: 15.9 µM
GI50 [30]: 0.727 µM
TGI [30]: 1.46 µM
GI50 [31]: 5.27 µM
TGI [31]: 11.4 µM
GI50 [32]: 2.82 µM
TGI [32]: 9.03 µM
GI50 [33]: 1.53 µM
TGI [33]: 7.77 µM
GI50 [34]: 0.763 µM
TGI [34]: 1.43 µM
GI50 [35]: 0.702 µM
TGI [35]: 1.52 µM
GI50 [36]: 1.56 µM
TGI [36]: 8.7 µM
GI50 [37]: 1.03 µM
TGI [37]: 6.12 µM
GI50 [38]: 0.911 µM
TGI [38]: 1.86 µM
GI50 [39]: 0.908 µM
TGI [39]: 2.87 µM
GI50 [40]: 0.988 µM
TGI [40]: 2.05 µM
GI50 [41]: 8.47 µM
TGI [41]: 18 µM
GI50 [42]: 0.903 µM
TGI [42]: 1.76 µM
GI50 [43]: 6.23 µM
TGI [43]: 17.8 µM
GI50 [44]: 4.59 µM
TGI [44]: 10.6 µM
GI50 [45]: 0.237 µM
TGI [45]: 2.56 µM
GI50 [46]: 1.81 µM
TGI [46]: 6.16 µM
GI50 [47]: 6.23 µM
TGI [47]: 12.5 µM
GI50 [48]: 0.726 µM
TGI [48]: 6.8 µM
GI50 [49]: 5.44 µM
TGI [49]: 13.5 µM
GI50 [50]: 3.54 µM
TGI [50]: 11.9 µM
GI50 [51]: 5.38 µM
TGI [51]: 15 µM
GI50 [52]: 2.03 µM
TGI [52]: 7.89 µM
GI50 [53]: 2.11 µM
TGI [53]: 8.47 µM
GI50 [54]: 3.92 µM
TGI [54]: 12.9 µM
GI50 [55]: 2.02 µM
TGI [55]: 8.34 µM
GI50 [56]: 4.13 µM
TGI [56]: 11.2 µM
